In experiment [1] the target is T1, Dihydrofolate reductase (Mus musculus, UniProt P00375).
T1 sequence (P00375 whole entry): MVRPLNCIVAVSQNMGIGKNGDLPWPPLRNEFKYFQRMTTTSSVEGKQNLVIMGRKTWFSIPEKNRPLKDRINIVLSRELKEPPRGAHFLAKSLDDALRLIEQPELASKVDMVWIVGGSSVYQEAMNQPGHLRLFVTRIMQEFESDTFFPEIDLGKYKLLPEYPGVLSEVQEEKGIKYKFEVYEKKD
As to the kind of experiment: Inhibitory activity of Dihydrofolate reductase derived from L1210 cell line. The format is cell-based.

In experiment [2] the test system is L1210. The experiment is described as follows: Inhibitory activity for the growth inhibition of L1210 cell line. As to conditions: Mus musculus. It counts as functional, cell-based.
Experiment [3] is described as follows: Relative influx was determined by taking the ratio vs MTX in L1210 cell line. The format is functional.
The nature of experiment [4]: Inhibitory activity for L1210 Glycinamide ribotide formyltransferase. Also on record: species or system Mus musculus.
A short description of experiment [5]: Inhibitory activity for Lactobacillus casei Glycinamide ribotide formyltransferase. Also on record: species or system Lacticaseibacillus casei.

pIC50, pKi: −log10 of the molar value. Bounds are passed on as bounds.

In the case of `CC(Cc1cnc2nc(N)nc(N)c2c1)c1ccc(C(=O)NC(CCC(=O)O)C(=O)O)cc1` (stereo unspecified), the negative logarithm of the Ki (pKi) – broadly, the negative decadic logarithm of the Ki, by convention in mol/L – in experiment [1] was 11.15. Further, the pIC50 (as a rule, the IC50 on a negative log10 scale, so that one unit is a factor of ten) in experiment [2] is 7.62. Also, the Relative influx in experiment [3] is on record as 1.43.
For `CCC(Cc1cnc2nc(N)nc(N)c2c1)c1ccc(C(=O)NC(CCC(=O)O)C(=O)O)cc1` (stereo unspecified) the same measures were 10.89, 7.92 and 1.32.
As to `CCC(CC1CNc2nc(N)nc(O)c2C1)c1ccc(C(=O)NC(CCC(=O)O)C(=O)O)cc1` (stereo unspecified), the pIC50 was 6.18 in experiment [4], 7.46 in experiment [2] and 7.10 in experiment [5]. Moreover, the negative-log Ki (pKi) in experiment [1] was less than 6.00. Besides, the Relative influx in experiment [3] worked out at 1.36.
For `CC(CC1CNc2nc(N)nc(O)c2C1)c1ccc(C(=O)NC(CCC(=O)O)C(=O)O)cc1` (stereo unspecified), in that order: 5.82, 7.30, 7.77, less than 6.00 and 1.72.
For `Nc1nc(O)c2c(n1)CCC(CNc1ccc(C(=O)NC(CCC(=O)O)C(=O)O)cc1)C2` (stereo unspecified), in that order: 6.30, 7.24, 8.00, less than 6.00 and 1.54.

Values taken from ChEMBL document CHEMBL1124825 (J Med Chem, 1990).
